In PubChem BioAssay (NCI):
Values joined by “and” are separate entries in the source; they are usually repeats but may differ in a detail not shown here. Equal entries are not always repeated.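 Each compound was tested at five concentrations against cells in 96-well plates for 48 hours. GI50 = concentration required for 50% inhibition of growth. Definition used: TGI = concentration required for complete inhibition of growth.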

Experiments:
Assay in all cases: growth of human tumour cells (NCI), 48 h
[1] = tested on: HOP-62 NSCLC
[2] = tested on: OVCAR-3 ovarian
[3] = tested on: HCT-15 colon
[4] = tested on: A549 NSCLC
[5] = tested on: CAKI-1 renal
[6] = tested on: SK-MEL-5 melanoma
[7] = tested on: DU-145 prostate
[8] = tested on: TK-10 renal
[9] = tested on: IGROV1 ovarian
[10] = tested on: MCF7 breast

Row | SMILES | TGI [1] | TGI [2] | TGI [3] | TGI [4] | TGI [5] | TGI [6] | TGI [7] | TGI [8] | TGI [9] | TGI [10] | GI50 [1] [µM] | GI50 [2] [µM] | GI50 [3] [µM] | GI50 [4] [µM] | GI50 [5] [µM] | GI50 [6] [µM] | GI50 [7] [µM] | GI50 [8] [µM] | GI50 [9] [µM] | GI50 [10] [µM]
1 | O=C1Nc2ccc(Br)cc2C1=Nc1cccnc1 | 74.2 µM | 44.3 µM | 59.6 µM | > 100 µM | > 100 µM | 31.8 µM | > 100 µM | > 100 µM | 60.7 µM | 59.3 µM |  |  |  |  |  |  |  |  |  | 
2 | O=C1OCC2=C1C(c1cccc(Cl)c1)c1cc3c(cc1N2CCO)OCCO3 (stereo not given) | 40.5 µM | 0.0618 µM | > 100 µM | 4.35 µM | > 55.6 µM | 0.507 µM | 1.31 µM | 37.3 µM | > 47.4 µM | 97.6 µM | 0.0787 | 0.0251 | 0.073 | 0.132 | 0.0697 | 0.036 | 0.152 | 0.12 | 0.0792 | 0.0379
3 | NCCCC[C@@H]1NC(=O)[C@H]2CCCN2C(=O)[C@H](Cc2ccccc2)CNC(=O)[C@H](Cc2ccccc2)NC1=O | > 37.5 µM | > 37.5 µM | > 37.5 µM | > 37.5 µM | > 37.5 µM | > 37.5 µM | > 37.5 µM | > 37.5 µM | > 37.5 µM | > 37.5 µM | > 37.5 | > 37.5 | > 37.5 | > 37.5 | > 37.5 | > 37.5 | > 37.5 | > 37.5 | > 37.5 | > 37.5
4 | O=C(Nc1ccc(Br)cc1F)c1cc(I)ccc1O | 8.15 µM | > 100 µM | 12.7 µM | > 100 µM | 6.51 µM | 2.98 µM | > 100 µM | 9.43 µM | > 100 µM | > 100 µM | 2.27 | 3.06 | 2.94 | 3.17 | 1.83 | 1.48 | 3.89 | 4.77 | 1.95 | 1.97
5 | COc1cc(OC)c2nc(C)c3c(c2c1)SCC3 | 34.6 µM | 36.4 µM | > 100 µM | 40.9 µM | 70.9 µM | 49.8 µM | > 100 µM | 38.5 µM | 34.7 µM | 36.2 µM |  |  |  |  |  |  |  |  |  | 
6 | O=C1C(Nc2ccc(Cl)cc2)=C(I)C(=O)c2ncccc21 | 4.74 µM | 1.03 µM | 1.82 µM | 9.48 µM | 1.54 µM | 2.91 µM | 3.37 µM | 2.94 µM | 1.41 µM | 1.16 µM | 1.79 | 0.247 | 0.373 | 2.75 | 0.327 | 1.55 | 1.37 | 1.59 | 0.359 | 0.289
7 | CC1=C(C(=O)Nc2ccc3n[nH]c(C)c3c2)C(c2ccc(C(F)(F)F)cc2)CC(=O)N1 (stereo not given) | > 25 µM | > 25 µM | > 25 µM | > 25 µM | > 25 µM | > 25 µM | > 25 µM | > 25 µM | > 25 µM | > 25 µM | 4.4 | > 25 | > 25 | 18.5 | > 18.8 | > 17.7 | > 25 | 14 | 10.3 | > 17.3
8 | Cc1[nH]c2ccccc2c1CCCO | > 100 µM | > 100 µM | > 100 µM | > 100 µM | > 100 µM | > 100 µM | > 100 µM | > 100 µM | > 100 µM | > 100 µM | > 100 | > 100 | > 100 | > 100 | > 100 | > 100 | > 100 | > 100 | 82.9 | > 100
9 | O=C1/C(=C/c2ccccc2)CN(C(=O)CCN2CCOCC2)C/C1=C\c1ccccc1 | 17.3 µM | 11.5 µM | 4.96 µM | 20.2 µM | 23 µM | 4.99 µM | 29.5 µM | 24.3 µM | 18.8 µM | 6.29 µM |  |  |  |  |  |  |  |  |  | 
10 | C/C(O)=C(/C=N/C(=S)Nc1ccc(S(N)(=O)=O)cc1)C(=O)Nc1ccccc1C | > 100 µM | > 100 µM | > 100 µM | > 100 µM | > 100 µM | > 100 µM | > 100 µM | > 100 µM | > 100 µM | > 100 µM |  |  |  |  |  |  |  |  |  | 
11 | C[C@H]1CC[C@@]2(NC1)O[C@H]1C[C@H]3[C@@H]4CC[C@H]5C[C@@H](O)CC[C@]5(C)[C@H]4CC[C@]3(C)[C@H]1[C@@H]2C | 19.4 µM and > 100 µM | 22.2 µM and > 100 µM | 50 µM and > 100 µM | 50 µM and > 100 µM | 34.5 µM and > 100 µM | 23.7 µM and > 100 µM | 50 µM and > 100 µM | 25.3 µM and > 100 µM | 24.5 µM and > 100 µM | 36.8 µM and > 100 µM | 9.72 | 9.61 | 20.9 | 19.6 | 12.9 | 11.7 | 30.3 | 11.1 | 12.3 | 12.9
12 | COc1cccc(-c2c[nH]c3c(N/N=C/c4ccncc4)ncnc23)c1 | > 15.3 µM | 6.26 µM | > 25 µM | 10.1 µM | > 25 µM | 3.91 µM | > 15.2 µM | 20.6 µM | > 25 µM | 5.91 µM | 3.74 | 1.12 | 1.46 | 2.67 | 1.84 | 0.809 | 2.23 | 4.15 | 3.9 | 1.93
13 | COc1cc(C(=O)c2c(-c3ccccc3)oc3c(OC)cccc23)cc(OC)c1OC | 47 µM | 0.363 µM | > 100 µM | > 100 µM | 21.9 µM | 0.733 µM | > 65.6 µM | > 62.2 µM | > 100 µM | > 100 µM | 0.071 | 0.0346 | 0.0444 | 0.0736 | 0.0474 | 0.157 | 0.125 | 10 | 0.0677 | 0.153
14 | C/C(=N/NC(=S)N1CCCCC1)c1ccccc1O | > 100 µM | > 31.6 µM | > 31.6 µM | > 31.6 µM | > 31.6 µM | > 100 µM | > 31.6 µM | > 31.6 µM | > 100 µM | > 31.6 µM |  |  |  |  |  |  |  |  |  | 
15 | Cc1c(C(=O)Nc2ccccc2)sc2ncn(Cc3cccc(Cl)c3)c(=O)c12 | 45.8 µM | > 100 µM | > 100 µM | 93.1 µM | 84.5 µM | > 100 µM | > 100 µM | > 100 µM | > 100 µM | > 100 µM | 18.3 | 41 | 13.2 | 29.6 | 15.4 | 25.7 | 34.9 | 11.7 | 15.6 | 10.6
16 | COC(C(=O)NN)c1ccccc1 (stereo not given) | > 100 µM | > 100 µM | > 100 µM | > 100 µM | > 100 µM | > 100 µM | > 100 µM | > 100 µM | > 100 µM | > 100 µM |  |  |  |  |  |  |  |  |  | 
17 | Cc1ccc(S(=O)(=O)c2c(COC(=O)c3cccc(C)c3)c(-c3ccccc3)nn2C)cc1 | > 100 µM | > 100 µM | > 100 µM | > 100 µM | > 100 µM | > 100 µM | > 100 µM | > 100 µM | > 100 µM | > 100 µM | > 100 | > 100 | > 100 | > 100 | > 100 | > 100 | > 100 | > 100 | > 100 | > 100
